Legend:
[1] = system: primary HIV-1 strains, including the X4, R5, and X4R5 strains; experiment: Anti-HIV-1 activity, panel of primary HIV-1 strains; format: cell-based; settings: Human immunodeficiency virus 1; range over X4, R5 and X4R5 primary strains; read-out: EC50 values against all tested representative primary HIV-1 strains
Experimental: The HIV-1 replication-inhibiting activity of compounds was determined as previously described ([Li et al., 2013]). Briefly, 1 × 10^4 TZM-bl or MT-2 cells were infected with primary HIV-1 strains or T20-resistant HIV-1 strains (100 TCID50) in 200 µl of RPMI-1640 medium containing 10% FBS in the presence or absence of compounds at graded concentrations for 12 h. The culture medium was replaced with fresh medium without the compounds. After culture for an additional 48 h, supernatants or cells were collected from each well. For the primary HIV-1 strains, the cells were treated using a luciferase kit. Briefly, the cells were lysed with the lysis reagent and were transferred into a 96-well flat-bottom luminometer plate after three washes with phosphate-buffered saline (PBS) (Costar Corning Inc., Corning, NY), followed by addition of the luciferase substrate included in the luciferase kit (Promega Corp., Madison, WI). The luciferase activity was measured immediately by an Ultra 384 microplate reader (Tecan, Research Triangle Park, NC). T20 was used as a positive control. For the T20-resistant HIV-1 strains, 100 µl of culture supernatant was mixed with 100 µl of 5% Triton X-100. […] Absorbance at 450 nm was recorded in an ELISA reader (Ultra 384, Tecan). EC50 values were calculated using the computer program CalcuSyn ([Chou and Talalay, 1984]).

HIV-1 X4 virus = experiment: Cell-cell HIV-1 X4 transmission, MT-2 to CEMx174 5.25 M7 cells; format: cell-based; settings: Human immunodeficiency virus 1; infected MT-2 to CEMx174 5.25 M7 cells; luciferase
Experimental: Inhibition of fusion between MT-2 cells infected by HIV-1 strains (X4 and R5 viruses) with CEMx174 5.25 M7 cells, which express CD4 and both coreceptors, CXCR4 and CCR5, was determined by a luciferase assay. Briefly, MT-2 cells were infected with the corresponding HIV-1 strains for 7 days. The infected MT-2 cells were washed three times and resuspended in culture medium to 2 × 10^5/ml. Then, 50 μl of a compound at graded concentrations in triplicate was incubated with equal volumes of HIV-1-infected MT-2 cells at 37°C for 30 min. Next, 100 μl of CEMx174 5.25 M7 cells (4 × 10^5/ml) was added, and the cells were incubated at 37°C for 3 days. The cells were collected, washed, and lysed with the lysing reagent included in the luciferase kit (Promega, Corp., Madison, Wis). Aliquots of cell lysates were transferred to 96-well flat-bottom luminometer plates (Costar), followed by the addition of luciferase substrate (Promega). Luciferase activity was measured using an Ultra 384 luminometer. ADS-J1 was used as a positive control for all cell–cell fusion assays.

[2] = target: T1, synthetic peptide N36 (gp41 NHR) (Human immunodeficiency virus type 1 group M subtype B, UniProt P04578); experiment: Surface plasmon resonance binding to N36; set-up: species or system HIV-1; settings: SPR, compound immobilized on chip, N36 injected, 25°C; read-out: binding affinity (KD) to N36
T1 construct: purchased GL Biochem of China; host or cells: chemical solid-phase Fmoc synthesis
Experimental: N36 at different concentrations (125, 250, and 500 µM in PBS) was injected at a flow rate of 2 µl/s with an association and dissociation time of 300 s at 25°C. At the end of each cycle, glycine–HCl buffer (pH 2.0) at a flow rate of 3 µl/s was used to regenerate the surface of the sensor chip platform with a regeneration time of 300 s. The binding affinity (KD) was calculated using the PlexeraDE data analysis module and GraphPad Prism 5.0 software.

[3] = system: HIV-1 NL4-3(36G)V38E,N42S; settings: T20-resistant NL4-3(36G)V38E,N42S; p24 ELISA; mean ± SD

T1 sequence (P04578 546-581): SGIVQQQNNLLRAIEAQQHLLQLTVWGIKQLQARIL

Cc1cc(/C=C2\SC(=S)N(Cc3ccccc3C(F)(F)F)C2=O)c(C)n1-c1ccc(O)c(C(=O)O)c1 [NSPD-12m]
EC50 [1]: 2.03 to 6.85 µM
EC50 (HIV-1 X4 virus): 3.64 ± 0.34 µM
Kd [2]: 0.411 µM
IC50 [3]: 5.26 ± 0.762 µM
IC90 [3]: 19.6 ± 0.552 µM

— article PMC6688628, “N-Substituted Pyrrole Derivative 12m Inhibits HIV-1 Entry by Targeting Gp41 of HIV-1 Envelope Glycoprotein” (Frontiers in Pharmacology, 2019)
